Experiments:
Format in all cases: cell-based, Human
DU145 cells [1] = experiment: EGFP reporter uptake (pEGFP transfection, flow cytometry)
Description: (§1) Cell culture. Human prostate cancer cells DU145 were grown in RPMI 1640 medium, supplemented with 10% heat-inactivated fetal bovine serum (Life Technologies) under standard conditions (Carbone et al., Nucleic Acids Res. 2003, 31, 833-843; Carbone et al., Nucleic Acids Res 2004, 32, 4358-4367).
EGFP reporter uptake. DU145 cells were plated in 6-well plates at a density of 1.5×10^5 cells/well, grown overnight and then transfected. Trasfection mixtures contained 4 μg of pEGFP reporter plasmid with or without addition of neomycin and DOTAP at a 1:5 ratio as described above. Cells were incubated with the transfection complexes for 5 hours, then the medium was removed and replaced with fresh medium. After 24 hours, cells were harvested […], recovered by centrifugation, washed once with PBS, and then analyzed using a FACSCalibur (Becton Dickinson). Data were analyzed using Cell Quest software.
The effects of neomycin on transfection efficiency were further examined using another reporter system, a plasmid expressing green fluorescent protein, the pEGFP reporter vector. DU145 cells were transfected with the pEGFP plasmid in the presence of DOTAP, neomycin or both DOTAP and neomycin. After 24 hours, cells were collected and analyzed for EGFP expression by flow cytometry to examine both fluorescence intensity and percentage of EGFP-positive cells. […]

DU145 cells [2] = experiment: Cellular uptake of fluorescein-labeled oligonucleotide (F-TFO), flow cytometry; conditions: F-TFO 125 nM; for percentage of fluorescein-positive cells: neomycin 5 μM where present
Description: as §1
Oligonucleotides and other reagents. The fluorescein-conjugated phosphorothioate oligonucleotide (F-TFO) was purchased from Sigma. The oligonucleotide was purified by high-performance liquid chromatography (HPLC). The sequence of the F-TFO, which is identical to the Ets2-TFO, has been published previously (Carbone et al., Nucleic Acids Res. 2003, 31, 833-843). Stock solutions of oligonucleotides were made in sterile water. Oligonucleotide concentrations were determined with a spectrophotometer using appropriate nucleotide extinction coefficients. DOTAP (1,2-dioleoyl-3-trimethyl-ammonium-propane) was purchased from Roche (Indianapolis, Ind.). Neomycin was purchased from Sigma, and used as described previously (Arya et al., J. Am. Chem. Soc. 2003, 125, 3733-3744).
Cellular uptake of oligonucleotides. Uptake of F-TFO and dauno-GT11 was examined 24 hours after transfection of DU145 cells (1.5×10^5 cells/well in 6-well plates) with DOTAP with or without the addition of neomycin as described above. Concentration of F-TFO was 125 nM, corresponding to about 1 μg of DNA/well. After 24 hours, cells were washed and analyzed using a FACSCalibur as described above.
Neomycin positively affected transfection efficiency of plasmid DNA mediated by DOTAP. This effect could be mediated by an increase in intracellular uptake and/or by an enhanced release of DNA from lipid complex into the cytoplasm. […] For the tests shown in FIG. 3, a phosporothioate oligonucleotide directed to the Ets2 gene promoter (Ets2-TFO) was conjugated at the 5′ end with fluorescein (Carbone et al., Nucleic Acids Res. 2003, 31, 833). Cells were transfected with the fluorescein labeled TFO (F-TFO) for 6 hours and then incubated for 24 hours in fresh medium before the analysis by flow cytometry. At the concentration used in the test, only about 7% of cells were fluorescein-positive when transfected with DOTAP alone. The percentage of fluorescein-positive cells increased to about 50% when the oligonucleotide was delivered using the combination of DOTAP and neomycin. Therefore, neomycin enhanced uptake of the F-TFO by approximately 7-fold.

DU145 cells [3] = experiment: Luciferase reporter assay (transfection of reporter plasmids); conditions: neomycin added to the medium after the transfection
Description: as §1
Reporter plasmids. The reporter plasmid pGL3-Ets2 containing the firefly luciferase gene under control of Ets2 promoter has been previously described (Carbone et al., Nucleic Acids Res 2004, 32, 4358-4367). The pRL-SV40 reporter plasmid was purchased from Promega. The pEGFP plasmid was obtained from Clontech.
Luciferase reporter assay. DU145 cells were plated in 48-well plates at a density of 1.5×10^4 cells/well. After 24 hours, cells were transfected with DOTAP-DNA complexes as previously described (Carbone et al., Nucleic Acids Res. 2003, 31, 833-843). […] Mixtures of DNA-DOTAP and DNA-DOTAP-neomycin were allowed to sit at room temperature for 15 minutes for complex formation. […] Luciferase activity was measured with the Luciferase assay system from Promega.
The effects of neomycin in combination with the cationic lipid preparation DOTAP on the uptake of luciferase reporter plasmids was determined. […] The efficiency of transfection as assessed by the luciferase assay increased as the concentration of neomycin increased from 0.5 to 5 μM (FIG. 1A). […]

[4] = flow cytometry 24 hours after transfection

| Compound | mean fluorescent intensity (EGFP) (DU145 cells [1]; pEGFP plasmid 4 μg, flow cytometry after 24 hours) | mean fluorescent intensity (F-TFO) (DU145 cells [2]; [4]) | percentage of fluorescein-positive cells (DU145 cells [2]; [4]) | effect on luciferase reporter activity (DU145 cells [3]) | efficiency of DNA uptake (DU145 cells [1]; pEGFP plasmid, neomycin alone (5 μM), without DOTAP) | oligonucleotide uptake (DU145 cells [2]; neomycin alone (5 μM), without DOTAP) |
| --- | --- | --- | --- | --- | --- | --- |
| CCCCCCCC/C=C\CCCCCCCC(=O)OCC(C[N+](C)(C)C)OC(=O)CCCCCCC/C=C\CCCCCCCC (stereo not shown) [DOTAP, 1,2-dioleoyl-3-trimethyl-ammonium-propane] | 27.8 | 19.4 | about 7% | – | – | – |
| neomycin | – | – | 2.4% | No effect | marginally affected | did not affect |
